Laboratory results as given in patent US10913744B2, “LRRK2 inhibitors and methods of making and using the same” (Dana-Farber Cancer Institute, Inc., priority 2015, dated 2021).
Like-named read-outs stand apart in the source and are kept apart here.

Tests used:
DDR2 = DDR2 (Homo sapiens (Human), UniProt Q16832); test: Dundee profiling
Src = Src (Homo sapiens (Human), UniProt P12931); test: Dundee profiling
PLK2 = PLK2 (Homo sapiens (Human), UniProt Q9NYY3); test: KinomeScan; assay type: binding; settings: 1 uM
BRK = BRK (Homo sapiens (Human), UniProt Q13882); test: Dundee profiling
CDK3 = CDK3 (Homo sapiens (Human), UniProt Q00526); test: KinomeScan; assay type: binding; settings: 1 uM
CDK9-Cyclin T1 = CDK9-Cyclin T1 (Homo sapiens (Human), UniProt P50750); test: Dundee profiling
EPHB2 = EPHB2 (Homo sapiens (Human), UniProt P29323); test: Dundee profiling
EPH-B3 = EPH-B3 (Homo sapiens (Human), UniProt P54753); test: Dundee profiling
NUAK1 = NUAK1 (Homo sapiens (Human), UniProt O60285); test: Dundee profiling
Chain of NUAK1 (O60285 whole entry, species assumed): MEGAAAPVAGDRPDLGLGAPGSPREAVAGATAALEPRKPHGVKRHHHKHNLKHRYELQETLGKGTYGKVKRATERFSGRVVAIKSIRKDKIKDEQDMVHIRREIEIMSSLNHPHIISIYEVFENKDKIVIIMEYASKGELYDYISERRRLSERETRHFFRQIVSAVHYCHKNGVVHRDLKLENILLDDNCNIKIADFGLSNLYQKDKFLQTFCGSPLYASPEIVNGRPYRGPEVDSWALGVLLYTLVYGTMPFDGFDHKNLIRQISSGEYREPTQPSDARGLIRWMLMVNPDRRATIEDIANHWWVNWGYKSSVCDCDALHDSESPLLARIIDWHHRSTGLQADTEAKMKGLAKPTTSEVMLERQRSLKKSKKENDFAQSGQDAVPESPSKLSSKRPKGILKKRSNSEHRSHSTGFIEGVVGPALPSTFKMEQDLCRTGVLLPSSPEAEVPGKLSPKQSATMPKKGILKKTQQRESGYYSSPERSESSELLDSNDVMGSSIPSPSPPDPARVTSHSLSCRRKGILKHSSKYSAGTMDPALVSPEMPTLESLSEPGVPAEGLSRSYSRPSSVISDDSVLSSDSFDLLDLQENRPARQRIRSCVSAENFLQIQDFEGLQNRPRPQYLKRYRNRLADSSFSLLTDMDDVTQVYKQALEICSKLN

Aurora B = Aurora B (Homo sapiens (Human), UniProt Q96GD4); test: Dundee profiling
Chain of Aurora B (Q96GD4 whole entry): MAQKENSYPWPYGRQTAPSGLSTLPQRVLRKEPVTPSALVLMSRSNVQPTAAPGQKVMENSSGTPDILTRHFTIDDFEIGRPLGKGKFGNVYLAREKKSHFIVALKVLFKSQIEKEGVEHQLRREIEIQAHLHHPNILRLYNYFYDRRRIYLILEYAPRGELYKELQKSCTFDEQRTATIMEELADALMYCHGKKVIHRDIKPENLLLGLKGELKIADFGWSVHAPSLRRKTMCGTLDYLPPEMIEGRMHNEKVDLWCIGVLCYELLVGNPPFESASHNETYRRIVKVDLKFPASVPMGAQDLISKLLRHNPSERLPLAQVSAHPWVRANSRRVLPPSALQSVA

JNK2 = JNK2 (Homo sapiens (Human), UniProt P45984); test: Dundee profiling
EPH-B4 = EPH-B4 (Homo sapiens (Human), UniProt P54760); test: Dundee profiling
ULK1 = ULK1 (Homo sapiens (Human), UniProt O75385); test: KinomeScan; assay type: binding; settings: 1 uM
IRR = IRR (Homo sapiens (Human), UniProt P14616); test: Dundee profiling
CK1δ = CK1δ (Homo sapiens (Human), UniProt P48730); test: Dundee profiling
Chain of CK1δ (P48730 whole entry): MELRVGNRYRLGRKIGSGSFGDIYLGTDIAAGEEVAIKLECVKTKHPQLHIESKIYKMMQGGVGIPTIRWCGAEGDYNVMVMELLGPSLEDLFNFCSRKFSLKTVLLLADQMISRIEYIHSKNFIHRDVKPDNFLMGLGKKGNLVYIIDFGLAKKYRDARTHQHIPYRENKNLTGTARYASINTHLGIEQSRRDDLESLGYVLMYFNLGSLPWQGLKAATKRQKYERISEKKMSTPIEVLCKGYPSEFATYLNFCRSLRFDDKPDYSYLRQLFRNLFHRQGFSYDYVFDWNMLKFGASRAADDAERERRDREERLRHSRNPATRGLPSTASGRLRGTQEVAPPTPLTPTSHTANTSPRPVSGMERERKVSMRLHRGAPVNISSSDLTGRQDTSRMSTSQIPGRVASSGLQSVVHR

DAPK1 = DAPK1 (Homo sapiens (Human), UniProt P53355); test: Dundee profiling
MARK3 = MARK3 (Homo sapiens (Human), UniProt P27448); test: Dundee profiling
Chain of MARK3 (P27448 whole entry, species assumed): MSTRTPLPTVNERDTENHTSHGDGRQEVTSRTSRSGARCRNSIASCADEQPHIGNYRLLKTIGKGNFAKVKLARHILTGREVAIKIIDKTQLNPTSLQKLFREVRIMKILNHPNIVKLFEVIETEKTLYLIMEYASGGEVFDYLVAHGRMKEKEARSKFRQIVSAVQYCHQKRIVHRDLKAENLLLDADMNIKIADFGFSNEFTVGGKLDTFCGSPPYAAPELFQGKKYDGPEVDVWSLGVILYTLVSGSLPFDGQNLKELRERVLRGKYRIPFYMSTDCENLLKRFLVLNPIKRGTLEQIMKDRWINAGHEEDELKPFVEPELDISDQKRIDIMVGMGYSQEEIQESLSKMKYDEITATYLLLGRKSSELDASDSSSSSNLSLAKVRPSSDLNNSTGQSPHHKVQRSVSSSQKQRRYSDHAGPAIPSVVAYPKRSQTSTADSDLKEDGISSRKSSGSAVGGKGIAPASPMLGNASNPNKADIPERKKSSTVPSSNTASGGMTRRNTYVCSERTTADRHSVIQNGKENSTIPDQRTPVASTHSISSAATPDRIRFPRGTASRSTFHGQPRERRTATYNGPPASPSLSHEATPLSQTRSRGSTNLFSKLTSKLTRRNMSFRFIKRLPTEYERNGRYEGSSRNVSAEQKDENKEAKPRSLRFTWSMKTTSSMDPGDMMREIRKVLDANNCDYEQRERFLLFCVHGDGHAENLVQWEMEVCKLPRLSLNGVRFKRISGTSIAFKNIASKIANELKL

MKK7 = MKK7 (Homo sapiens (Human), UniProt O14733); test: KinomeScan; assay type: binding; settings: 1 uM
CDK11 = CDK11 (Homo sapiens (Human), UniProt Q9BWU1); test: KinomeScan; assay type: binding; settings: 1 uM
p38-alpha = p38-alpha (Homo sapiens (Human), UniProt Q16539); test: KinomeScan; assay type: binding; settings: 1 uM
PKCz = PKCz (Homo sapiens (Human), UniProt Q05513); test: Dundee profiling
CK1γ2 = CK1γ2 (Homo sapiens (Human), UniProt P78368); test: Dundee profiling
Chain of CK1γ2 (P78368 whole entry): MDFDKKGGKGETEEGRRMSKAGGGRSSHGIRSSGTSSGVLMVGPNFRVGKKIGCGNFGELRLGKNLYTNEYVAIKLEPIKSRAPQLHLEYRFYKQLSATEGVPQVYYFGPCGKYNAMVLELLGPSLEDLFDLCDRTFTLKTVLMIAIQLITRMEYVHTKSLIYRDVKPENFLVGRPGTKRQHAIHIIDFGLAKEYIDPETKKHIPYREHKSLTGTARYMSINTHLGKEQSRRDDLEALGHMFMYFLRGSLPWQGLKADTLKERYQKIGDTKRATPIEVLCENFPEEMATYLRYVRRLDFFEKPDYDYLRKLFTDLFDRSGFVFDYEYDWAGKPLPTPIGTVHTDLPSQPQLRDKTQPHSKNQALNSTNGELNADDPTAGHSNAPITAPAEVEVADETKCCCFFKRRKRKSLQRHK

CSK = CSK (Homo sapiens (Human), UniProt P41240); test: KinomeScan; assay type: binding; settings: 1 uM
MEKK1 = MEKK1 (Homo sapiens (Human), UniProt Q13233); test: Dundee profiling
Chain of MEKK1 (Q13233 whole entry, species assumed): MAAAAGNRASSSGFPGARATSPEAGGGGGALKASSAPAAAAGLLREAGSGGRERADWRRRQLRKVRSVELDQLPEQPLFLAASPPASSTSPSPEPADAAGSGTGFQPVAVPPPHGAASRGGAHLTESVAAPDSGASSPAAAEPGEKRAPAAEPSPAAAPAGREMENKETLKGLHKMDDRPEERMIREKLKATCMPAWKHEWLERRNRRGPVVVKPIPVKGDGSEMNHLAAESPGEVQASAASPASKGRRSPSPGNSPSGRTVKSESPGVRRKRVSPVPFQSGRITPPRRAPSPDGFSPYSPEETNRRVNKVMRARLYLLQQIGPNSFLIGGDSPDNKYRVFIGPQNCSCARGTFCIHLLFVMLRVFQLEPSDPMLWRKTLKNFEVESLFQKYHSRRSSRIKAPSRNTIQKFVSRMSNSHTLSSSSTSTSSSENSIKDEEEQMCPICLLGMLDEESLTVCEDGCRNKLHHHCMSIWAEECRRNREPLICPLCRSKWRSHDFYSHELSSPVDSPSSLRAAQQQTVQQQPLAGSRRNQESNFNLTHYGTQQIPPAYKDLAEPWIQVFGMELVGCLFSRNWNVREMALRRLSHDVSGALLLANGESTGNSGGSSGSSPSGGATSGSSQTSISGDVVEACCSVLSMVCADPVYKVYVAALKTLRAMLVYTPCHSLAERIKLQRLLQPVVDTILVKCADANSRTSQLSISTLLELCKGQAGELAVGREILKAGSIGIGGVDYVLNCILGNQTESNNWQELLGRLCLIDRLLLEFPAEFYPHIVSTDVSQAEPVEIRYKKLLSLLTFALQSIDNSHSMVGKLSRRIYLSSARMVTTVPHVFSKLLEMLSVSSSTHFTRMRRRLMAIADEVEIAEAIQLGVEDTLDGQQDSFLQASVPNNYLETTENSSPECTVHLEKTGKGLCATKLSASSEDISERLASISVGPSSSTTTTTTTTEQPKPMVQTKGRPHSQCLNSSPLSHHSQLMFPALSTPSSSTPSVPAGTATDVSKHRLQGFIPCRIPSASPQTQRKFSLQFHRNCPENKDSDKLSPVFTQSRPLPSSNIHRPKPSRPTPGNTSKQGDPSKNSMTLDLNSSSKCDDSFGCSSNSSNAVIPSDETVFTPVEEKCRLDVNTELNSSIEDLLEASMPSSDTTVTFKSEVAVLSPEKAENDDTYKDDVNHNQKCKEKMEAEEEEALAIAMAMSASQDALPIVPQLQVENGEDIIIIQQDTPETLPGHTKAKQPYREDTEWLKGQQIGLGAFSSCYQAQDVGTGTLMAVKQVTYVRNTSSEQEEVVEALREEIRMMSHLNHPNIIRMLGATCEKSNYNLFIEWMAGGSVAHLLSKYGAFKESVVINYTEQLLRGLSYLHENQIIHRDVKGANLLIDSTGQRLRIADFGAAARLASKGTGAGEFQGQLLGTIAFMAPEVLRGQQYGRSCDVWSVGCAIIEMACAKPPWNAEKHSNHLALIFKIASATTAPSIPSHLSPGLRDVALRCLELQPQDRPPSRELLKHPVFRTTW

MAP4K5 = MAP4K5 (Homo sapiens (Human), UniProt Q9Y4K4); test: Dundee profiling
Chain of MAP4K5 (Q9Y4K4 whole entry, looked up, species assumed): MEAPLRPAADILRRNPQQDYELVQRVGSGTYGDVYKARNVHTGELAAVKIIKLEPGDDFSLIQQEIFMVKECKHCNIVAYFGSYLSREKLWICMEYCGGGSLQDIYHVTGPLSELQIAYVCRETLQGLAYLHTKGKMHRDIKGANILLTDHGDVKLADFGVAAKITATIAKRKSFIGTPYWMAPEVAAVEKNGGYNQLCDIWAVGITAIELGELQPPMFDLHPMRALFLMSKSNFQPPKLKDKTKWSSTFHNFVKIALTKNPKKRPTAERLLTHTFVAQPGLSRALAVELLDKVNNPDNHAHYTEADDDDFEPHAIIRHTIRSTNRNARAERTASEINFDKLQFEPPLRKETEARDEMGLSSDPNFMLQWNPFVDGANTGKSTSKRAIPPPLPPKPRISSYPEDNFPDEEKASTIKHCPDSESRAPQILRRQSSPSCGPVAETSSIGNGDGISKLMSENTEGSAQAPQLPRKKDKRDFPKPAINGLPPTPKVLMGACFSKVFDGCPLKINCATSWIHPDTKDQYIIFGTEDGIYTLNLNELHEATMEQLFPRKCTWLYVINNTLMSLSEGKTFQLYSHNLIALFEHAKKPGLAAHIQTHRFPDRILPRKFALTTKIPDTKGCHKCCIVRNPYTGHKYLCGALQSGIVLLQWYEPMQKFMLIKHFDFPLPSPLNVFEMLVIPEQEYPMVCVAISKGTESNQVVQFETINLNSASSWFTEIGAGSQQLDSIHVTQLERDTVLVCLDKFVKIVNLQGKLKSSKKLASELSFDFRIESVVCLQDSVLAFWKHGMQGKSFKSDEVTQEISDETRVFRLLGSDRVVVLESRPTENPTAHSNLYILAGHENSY

TBK1 = TBK1 (Homo sapiens (Human), UniProt Q9UHD2); test: Dundee profiling
Aurora A = Aurora A (Homo sapiens (Human), UniProt O14965); test: Dundee profiling
IRAK4 = IRAK4 (Homo sapiens (Human), UniProt Q9NWZ3); test: KinomeScan; assay type: binding; settings: 1 uM
QSK = QSK (Homo sapiens (Human), UniProt Q9Y2K2); test: KinomeScan; assay type: binding; settings: 1 uM
MKK1 = MKK1 (Homo sapiens (Human), UniProt Q02750); test: Dundee profiling
MKK2 = MKK2 (Homo sapiens (Human), UniProt P36507); test: Dundee profiling
JAK2 = JAK2 (Homo sapiens (Human), UniProt O60674); test: Dundee profiling
[1] = biological target: RSK4 (Kin.Dom.2-C-terminal) (Homo sapiens (Human), UniProt Q9UK32); test: KinomeScan; assay type: binding; settings: 1 uM
S6K1 = S6K1 (Homo sapiens (Human), UniProt P23443); test: Dundee profiling
IKKb = IKKb (Homo sapiens (Human), UniProt O14920); test: Dundee profiling
[2] = read-out: percent remaining enzymatic activity, I1, 1 μM
[3] = read-out: percent remaining enzymatic activity, I10
[4] = read-out: percent remaining enzymatic activity

CNc1nc(Nc2ccc(C(=O)N3CCOCC3)cc2OC)nc2[nH]cc(Cl)c12 [Compound 18, (4-((5-chloro-4-(methylamino)-7H-pyrrolo[2,3-d]pyrimidin-2-yl)amino)-3-methoxyphenyl)(morpholino)methanone]
remaining activity at 1 µM (DDR2; [2]): 98%
remaining activity at 1 µM (DDR2; [3]): 93%
remaining activity at 1 µM (Src; [2]): 110%
remaining activity at 1 µM (Src; [3]): 102%
KinomeScan value (PLK2): 100
remaining activity at 1 µM (BRK; [2]): 62%
remaining activity at 1 µM (BRK; [3]): 19%
KinomeScan value (CDK3): 96
remaining activity at 1 µM (CDK9-Cyclin T1; [2]): 105%
remaining activity at 1 µM (CDK9-Cyclin T1; [3]): 91%
percent remaining enzymatic activity (EPHB2; I10): 58%
remaining activity at 1 µM (EPHB2; [4]): 60%
percent remaining enzymatic activity (EPH-B3; I1, 1 μM): 92%
remaining activity at 1 µM (EPH-B3; [4]): 92%
percent remaining enzymatic activity (NUAK1; I10): 17%
remaining activity at 1 µM (NUAK1; [4]): 75%
remaining activity at 1 µM (Aurora B; [2]): 97%
remaining activity at 1 µM (Aurora B; [3]): 90%
percent remaining enzymatic activity (JNK2; I10): 4%
remaining activity at 1 µM (JNK2; [4]): 27%
remaining activity at 1 µM (EPH-B4; [2]): 80%
remaining activity at 1 µM (EPH-B4; [3]): 86%
KinomeScan value (ULK1): 100
remaining activity at 1 µM (IRR; [2]): 31%
remaining activity at 1 µM (IRR; [3]): 10%
remaining activity at 1 µM (CK1δ; [2]): 74%
remaining activity at 1 µM (CK1δ; [3]): 33%
remaining activity at 1 µM (DAPK1; [2]): 21%
remaining activity at 1 µM (DAPK1; [3]): 5%
remaining activity at 1 µM (MARK3; [2]): 120%
remaining activity at 1 µM (MARK3; [3]): 92%
KinomeScan value (MKK7): 100
KinomeScan value (CDK11): 63
KinomeScan value (p38-alpha): 96
remaining activity at 1 µM (PKCz; [2]): 76%
remaining activity at 1 µM (PKCz; [3]): 94%
percent remaining enzymatic activity (CK1γ2; I10): 45%
remaining activity at 1 µM (CK1γ2; [4]): 100%
KinomeScan value (CSK): 100
remaining activity at 1 µM (MEKK1; [2]): 94%
remaining activity at 1 µM (MEKK1; [3]): 85%
remaining activity at 1 µM (MAP4K5; [2]): 110%
remaining activity at 1 µM (MAP4K5; [3]): 92%
remaining activity at 1 µM (TBK1; [2]): 88%
remaining activity at 1 µM (TBK1; [3]): 67%
remaining activity at 1 µM (Aurora A; [2]): 124%
remaining activity at 1 µM (Aurora A; [3]): 112%
KinomeScan value (IRAK4): 100
KinomeScan value (QSK): 86
remaining activity at 1 µM (MKK1; [2]): 91%
remaining activity at 1 µM (MKK1; [3]): 56%
remaining activity at 1 µM (MKK2; [2]): 101%
remaining activity at 1 µM (MKK2; [3]): 72%
percent remaining enzymatic activity (JAK2; I10): 97%
remaining activity at 1 µM (JAK2; [4]): 99%
KinomeScan value [1]: 90
remaining activity at 1 µM (S6K1; [2]): 106%
remaining activity at 1 µM (S6K1; [3]): 102%
remaining activity at 1 µM (IKKb; [2]): 100%
remaining activity at 1 µM (IKKb; [3]): 95%
